{"source": "paper PMC5458078", "about": "“Global mapping of CARM1 substrates defines enzyme specificity and substrate recognition” (Nature Communications, 2017)", "key": {"MCF7 CARM1 KO cells": {"test_system": "MCF7 CARM1 KO cells", "assay": "Quantitative MS of ADMA-containing peptides in MCF7 CARM1 KO cells expressing CARM1 28-608 or CARM1 140-608, and in CARM1 KO", "type": "cell-based, human"}, "MCF7 cells": {"test_system": "MCF7 cells", "assay": "Quantitative nanoLC-MS/MS (TMT) of ADMA-containing peptides, CARM1 KO vs parental", "type": "cell-based, human", "parameters": "Fold change KO/WT: scale not given here"}, "[1]": {"settings": "CARM1 140-608 vs WT, mean of 3 replicates (log2 scale)"}, "[2]": {"settings": "KO vs WT, mean of 3 replicates (log2 scale)"}, "[3]": {"settings": "MCF7, CARM1 KO (KO1-KO3) vs wild type (WT1-WT3)"}, "[4]": {"settings": "ADMA-containing peptide, MCF7, CARM1 knockout (KO1-3) vs wild type (WT1-3), TMT 6-plex experiment #1"}, "[5]": {"settings": "log2 scale ratio, mean of n = 3"}, "[6]": {"settings": "ratio on log2 scale, mean of 3 replicates"}, "[7]": {"settings": "MCF7, CARM1 knockout vs wild type, n = 3 each"}, "[8]": {"settings": "difference of log2 means, CARM1 140-608 vs WT"}, "[9]": {"settings": "difference of log2 means, KO vs WT"}, "[10]": {"settings": "MCF7 CARM1 knockout vs wild type, 3 biological replicates each, values are on log2 scale"}, "[11]": {"settings": "CARM1 140-608 vs WT, mean of 3 replicates, log2"}, "[12]": {"settings": "KO vs WT, mean of 3 replicates, log2"}, "[13]": {"settings": "MCF7, CARM1 KO vs WT, three biological replicates each"}, "[14]": {"settings": "ADMA-containing peptide, CARM1 knockout (KO) vs wild type (WT) MCF7 cells, 6-plex TMT experiment #1, three biological replicates each, sheet \"MCF7\""}, "[15]": {"settings": "CARM1 140-608 versus WT, difference of mean log2 values"}, "[16]": {"settings": "CARM1 KO versus WT, difference of mean log2 values"}}, "note": "Read-outs that look alike come from different tables or passages of the source."}
{"substance": "SLIPPIPVSPPILAPrLSSGALK", "values": [{"measurement": "CARM1 140-608/WT", "setting": "MCF7 CARM1 KO cells; [1]", "result": -0.7213}, {"measurement": "KO/WT", "setting": "MCF7 CARM1 KO cells; [2]", "result": -2.509}, {"measurement": "Fold change KO/WT", "setting": "MCF7 cells; [3]", "result": -3.075}]}
{"substance": "SPFLGSArPrLR", "values": [{"measurement": "CARM1 140-608/WT", "setting": "MCF7 CARM1 KO cells", "result": -0.6148}, {"measurement": "KO/WT", "setting": "MCF7 CARM1 KO cells", "result": -3.721}, {"measurement": "Fold change KO/WT", "setting": "MCF7 cells; [4]", "result": -3.721}]}
{"substance": "SPFLGSArPrLrFSPYQIPVTIPPSTSLLTTGLASEGSK", "values": [{"measurement": "CARM1 140-608/WT", "setting": "MCF7 CARM1 KO cells; [5]", "result": -2.053}, {"measurement": "KO/WT", "setting": "MCF7 CARM1 KO cells; [5]", "result": -3.915}, {"measurement": "Fold change KO/WT", "setting": "MCF7 cells; [4]", "result": -3.915}]}
{"substance": "SPGVFRPEQDPVPrMPFEK", "values": [{"measurement": "CARM1 140-608/WT", "setting": "MCF7 CARM1 KO cells; [1]", "result": -0.5664}, {"measurement": "KO/WT", "setting": "MCF7 CARM1 KO cells; [2]", "result": -2.083}, {"measurement": "Fold change KO/WT", "setting": "MCF7 cells; [3]", "result": -2.083}]}
{"substance": "SPLLNQPVPELSHASLIANQSPFrAPLNVTNTAGTSLPSVDLLQK", "values": [{"measurement": "CARM1 140-608/WT", "setting": "MCF7 CARM1 KO cells; [6]", "result": -2.179}, {"measurement": "KO/WT", "setting": "MCF7 CARM1 KO cells; [6]", "result": -2.328}, {"measurement": "Fold change KO/WT", "setting": "MCF7 cells; [7]", "result": -2.328}]}
{"substance": "SPVAPPLGPrYAVFPK", "values": [{"measurement": "CARM1 140-608/WT", "setting": "MCF7 CARM1 KO cells; [8]", "result": 2.312}, {"measurement": "KO/WT", "setting": "MCF7 CARM1 KO cells; [9]", "result": -0.9897}, {"measurement": "Fold change KO/WT", "setting": "MCF7 cells; [10]", "result": -2.706}]}
{"substance": "SPYTTTrYGSPINTFTVrPGTR", "values": [{"measurement": "CARM1 140-608/WT", "setting": "MCF7 CARM1 KO cells; [11]", "result": -2.642}, {"measurement": "KO/WT", "setting": "MCF7 CARM1 KO cells; [12]", "result": -5.424}, {"measurement": "Fold change KO/WT", "setting": "MCF7 cells; [13]", "result": -3.428}]}
{"substance": "SQAPArYSLQSANASSLSSGQLK", "values": [{"measurement": "CARM1 140-608/WT", "setting": "MCF7 CARM1 KO cells; [11]", "result": -3.491}, {"measurement": "KO/WT", "setting": "MCF7 CARM1 KO cells; [12]", "result": -4.438}, {"measurement": "Fold change KO/WT", "setting": "MCF7 cells; [13]", "result": -4.438}]}
{"substance": "SQGAQPQQVTLrLALR", "values": [{"measurement": "CARM1 140-608/WT", "setting": "MCF7 CARM1 KO cells; CARM1 140-608 versus WT, mean of three replicates (log2)", "result": -1.727}, {"measurement": "KO/WT", "setting": "MCF7 CARM1 KO cells; KO versus WT, mean of three replicates (log2)", "result": -1.987}, {"measurement": "Fold change KO/WT", "setting": "MCF7 cells; [14]", "result": -1.987}]}
{"substance": "SSYLESPrGPrFDGPR", "values": [{"measurement": "CARM1 140-608/WT", "setting": "MCF7 CARM1 KO cells; [15]", "result": -2.628}, {"measurement": "KO/WT", "setting": "MCF7 CARM1 KO cells; [16]", "result": -4.092}, {"measurement": "Fold change KO/WT", "setting": "MCF7 cells; CARM1 KO vs wild type MCF7 cells, 3 biological replicates each", "result": -3.147}]}
{"substance": "STArFTLNPNPTGVQNPHIER", "values": [{"measurement": "CARM1 140-608/WT", "setting": "MCF7 CARM1 KO cells; [8]", "result": -1.926}, {"measurement": "KO/WT", "setting": "MCF7 CARM1 KO cells; [9]", "result": -2.347}, {"measurement": "Fold change KO/WT", "setting": "MCF7 cells; [14]", "result": -1.9764}]}
{"substance": "STLKPQPAPQAGPIPVAPIGTLKPQPQPVPASYTTASTSSrPTFNVQVK", "values": [{"measurement": "CARM1 140-608/WT", "setting": "MCF7 CARM1 KO cells; [8]", "result": -2.676}, {"measurement": "KO/WT", "setting": "MCF7 CARM1 KO cells; [9]", "result": -3.941}, {"measurement": "Fold change KO/WT", "setting": "MCF7 cells; [10]", "result": -3.941}]}
{"substance": "STNPELPPrLGPVPSGLSQK", "values": [{"measurement": "CARM1 140-608/WT", "setting": "MCF7 CARM1 KO cells; [6]", "result": -2.1}, {"measurement": "KO/WT", "setting": "MCF7 CARM1 KO cells; [6]", "result": -2.804}, {"measurement": "Fold change KO/WT", "setting": "MCF7 cells; [7]", "result": -2.804}]}
{"substance": "STrGGHMNSGGHAK", "values": [{"measurement": "CARM1 140-608/WT", "setting": "MCF7 CARM1 KO cells; [11]", "result": 0.5079}, {"measurement": "KO/WT", "setting": "MCF7 CARM1 KO cells; [12]", "result": 0.07617}, {"measurement": "Fold change KO/WT", "setting": "MCF7 cells; [13]", "result": 0.07617}]}
{"substance": "SVGQGYSVGQSMrLGLGGNAPVSIPQQSQSVK", "values": [{"measurement": "CARM1 140-608/WT", "setting": "MCF7 CARM1 KO cells; [11]", "result": -2.098}, {"measurement": "KO/WT", "setting": "MCF7 CARM1 KO cells; [12]", "result": -2.576}, {"measurement": "Fold change KO/WT", "setting": "MCF7 cells; [13]", "result": -2.576}]}
{"substance": "SVVESSAPGANNLQVNALVArLPLLLPR", "values": [{"measurement": "CARM1 140-608/WT", "setting": "MCF7 CARM1 KO cells; [1]", "result": -0.343}, {"measurement": "KO/WT", "setting": "MCF7 CARM1 KO cells; [2]", "result": -2.6091}, {"measurement": "Fold change KO/WT", "setting": "MCF7 cells; [3]", "result": -2}]}
{"substance": "SVVESSAPGANNLQVNALVArLPLLLPrAPR", "values": [{"measurement": "CARM1 140-608/WT", "setting": "MCF7 CARM1 KO cells; [1]", "result": -1.353}, {"measurement": "KO/WT", "setting": "MCF7 CARM1 KO cells; [2]", "result": -2.886}, {"measurement": "Fold change KO/WT", "setting": "MCF7 cells; [3]", "result": -2.886}]}
{"substance": "SYGLGSEQrSQAPArYSLQSANASSLSSGQLK", "values": [{"measurement": "CARM1 140-608/WT", "setting": "MCF7 CARM1 KO cells; [11]", "result": -3.897}, {"measurement": "KO/WT", "setting": "MCF7 CARM1 KO cells; [12]", "result": -5.372}, {"measurement": "Fold change KO/WT", "setting": "MCF7 cells; [13]", "result": -5.372}]}
{"substance": "TAAALAPASLTSArMAPALSGANLTSPrVPLSAYER", "values": [{"measurement": "CARM1 140-608/WT", "setting": "MCF7 CARM1 KO cells; [5]", "result": -2.654}, {"measurement": "KO/WT", "setting": "MCF7 CARM1 KO cells; [5]", "result": -3.829}, {"measurement": "Fold change KO/WT", "setting": "MCF7 cells; [4]", "result": -3.829}]}
{"substance": "TATVTIrPNTSGSGGTTSNSQVITGPQIrPGMTVIRTPLQQSTLGK", "values": [{"measurement": "CARM1 140-608/WT", "setting": "MCF7 CARM1 KO cells; [11]", "result": 2.998}, {"measurement": "KO/WT", "setting": "MCF7 CARM1 KO cells; [12]", "result": -1.078}, {"measurement": "Fold change KO/WT", "setting": "MCF7 cells; [13]", "result": -1.078}]}
{"substance": "TATVTIrPNTSGSGGTTSNSQVITGPQIrPGMTVIrTPLQQSTLGK", "values": [{"measurement": "CARM1 140-608/WT", "setting": "MCF7 CARM1 KO cells; [11]", "result": 1.9774}, {"measurement": "KO/WT", "setting": "MCF7 CARM1 KO cells; [12]", "result": -1.958}, {"measurement": "Fold change KO/WT", "setting": "MCF7 cells; [13]", "result": -2.17}]}
{"substance": "TDGFAEAIHSPQVAGVPrFR", "values": [{"measurement": "CARM1 140-608/WT", "setting": "MCF7 CARM1 KO cells; [15]", "result": -1.17}, {"measurement": "KO/WT", "setting": "MCF7 CARM1 KO cells; [16]", "result": -1.53}, {"measurement": "Fold change KO/WT", "setting": "MCF7 cells; [4]", "result": -1.53}]}
{"substance": "TGALPGPGPLSNPrLGGLPGPGPMSNPR", "values": [{"measurement": "CARM1 140-608/WT", "setting": "MCF7 CARM1 KO cells; [6]", "result": -0.9797}, {"measurement": "KO/WT", "setting": "MCF7 CARM1 KO cells; [6]", "result": -1.901}, {"measurement": "Fold change KO/WT", "setting": "MCF7 cells; [13]", "result": -3.491}]}
{"substance": "TNRPGISTTDrGFPrArYR", "values": [{"measurement": "CARM1 140-608/WT", "setting": "MCF7 CARM1 KO cells; [11]", "result": -0.4847}, {"measurement": "KO/WT", "setting": "MCF7 CARM1 KO cells; [12]", "result": -0.1094}, {"measurement": "Fold change KO/WT", "setting": "MCF7 cells; [13]", "result": -0.1094}]}
{"substance": "TPASTWASPrPLLNWSR", "values": [{"measurement": "CARM1 140-608/WT", "setting": "MCF7 CARM1 KO cells; [1]", "result": -2.026}, {"measurement": "KO/WT", "setting": "MCF7 CARM1 KO cells; [2]", "result": -3.334}, {"measurement": "Fold change KO/WT", "setting": "MCF7 cells; [3]", "result": -3.334}]}
{"substance": "TPGQINLAQLrLQHMQQQVYAQK", "values": [{"measurement": "CARM1 140-608/WT", "setting": "MCF7 CARM1 KO cells; [15]", "result": -3.552}, {"measurement": "KO/WT", "setting": "MCF7 CARM1 KO cells; [16]", "result": -5.003}, {"measurement": "Fold change KO/WT", "setting": "MCF7 cells; [4]", "result": -4.121}]}
